Patent US20240308995A1, “O-GLYCOPROTEIN-2-ACETAMIDO-2-DEOXY-3-D-GLUCOPYRANOSIDASE INHIBITORS” (BIOGEN MA INC., priority 2018, published 2024)
pIC50: −log10 of the molar value. Read-outs that look alike come from different tables or passages of the source. Marks after values point to notes of the source that are not given here.

Tests used:
[1] = target: Recombinant full length human OGA enzyme (Homo sapiens (Human), UniProt O60502); test: OGA Enzyme Inhibition Biochemical Assay; conditions: 1 nM OGA, 100 μM 4-MUGlcNAc, pH 6.4
How it was run: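 Full-length recombinant human OGA with fluorogenic 4-MUGlcNAc in McIlvaine buffer pH 6.4, 0.01% BSA; 90 min at room temperature, glycine pH 10 quench, fluorescence Ex 355/Em 460 nm. 10-point, 4-fold dilution from 20 μM; 4-parameter variable-slope fit.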

[2] = target: OGA (S400 O-GLCNAC), HEK-293T cells transfected with Tau-V5 (Homo sapiens (Human), UniProt O60502); test: Cellular OGA-Tau MSD Assay; assay type: cell-based
How it was run: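 HEK-293T cells transfected with OGA and Tau-V5 plasmids were treated overnight at 37° C with a 10-point, 3-fold titration from 1 uM. Lysates went onto V5-antibody MSD plates to capture Tau, probed with a Tau O-GlcNAc antibody and read by electrochemiluminescence; IC50 from a 4-parameter fit.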

P-gp (MDR1) = test: MDR1-MDCK Efflux Ratio Assay; assay type: in vitro ADME; conditions: dog, read-out: MDR1-MDCK Efflux Ratio (B-A/A-B)
Protocol: MDR1-MDCK cell monolayers were grown to confluence on microporous polyester membranes in 96-well Corning insert plates. The permeability assay buffer was Hanks' Balanced Salt Solution containing 10 mM HEPES at pH of 7.4. Loperamide (1 μM) was used as a positive control P-gp substrate. Propranolol and Bestatin (1 μM) were used as high and low permeability comparators, respectively. Test compounds or positive control P-gp substrate/permeability comprators were added to respective apical and basolateral chambers for bidirectional assessment of permeability. Receiver buffer (transport buffer supplemented with 1% bovine serum albumin) was added to respective receiver chambers. MDR1-MDCK cells were incubated with test compounds at 37° C. with 5% CO2 for 2 hr. Samples were collected from the donor chamber at both 0 and 120 minutes, and from the receiver chamber at 120 minutes. Test and control compound concentrations were determined using LC-MS/MS analysis. Each determination was performed in triplicate. The apparent permeability (Papp), efflux ratio and mass balance (percent recovery) were calculated as follows: [formula] where: dCr/dt is the cumulative concentration in the receiver compartment versus time in μM s^−1 Vr is the volume of the receiver compartment in cm^3 Vd is the volume of the donor compartment in cm^3 A is the area of the insert (0.143 cm^2 for 96-well insert) CE is the estimated experimental concentration (Time=0) of the dosing solution Cr^final is the concentration of the receiver at the end of the incubation period Cd^final is the concentration of the donor at the end of the incubation period.

[3] = Rat Liver Microsome Stability Assay; assay type: in vitro ADME
[4] = HEK-293T cells, Tau-S400-GlcNAc MSD readout
[5] = repeated assay, value marked with asterisk (*)
[6] = MDCK-MDR1, pH 7.4, MDR1-MDCK cells, 2 hr, pH 7.4
[7] = rat liver microsomes, 1 uM compound

Sequence of Recombinant full length human OGA enzyme (O60502 whole entry): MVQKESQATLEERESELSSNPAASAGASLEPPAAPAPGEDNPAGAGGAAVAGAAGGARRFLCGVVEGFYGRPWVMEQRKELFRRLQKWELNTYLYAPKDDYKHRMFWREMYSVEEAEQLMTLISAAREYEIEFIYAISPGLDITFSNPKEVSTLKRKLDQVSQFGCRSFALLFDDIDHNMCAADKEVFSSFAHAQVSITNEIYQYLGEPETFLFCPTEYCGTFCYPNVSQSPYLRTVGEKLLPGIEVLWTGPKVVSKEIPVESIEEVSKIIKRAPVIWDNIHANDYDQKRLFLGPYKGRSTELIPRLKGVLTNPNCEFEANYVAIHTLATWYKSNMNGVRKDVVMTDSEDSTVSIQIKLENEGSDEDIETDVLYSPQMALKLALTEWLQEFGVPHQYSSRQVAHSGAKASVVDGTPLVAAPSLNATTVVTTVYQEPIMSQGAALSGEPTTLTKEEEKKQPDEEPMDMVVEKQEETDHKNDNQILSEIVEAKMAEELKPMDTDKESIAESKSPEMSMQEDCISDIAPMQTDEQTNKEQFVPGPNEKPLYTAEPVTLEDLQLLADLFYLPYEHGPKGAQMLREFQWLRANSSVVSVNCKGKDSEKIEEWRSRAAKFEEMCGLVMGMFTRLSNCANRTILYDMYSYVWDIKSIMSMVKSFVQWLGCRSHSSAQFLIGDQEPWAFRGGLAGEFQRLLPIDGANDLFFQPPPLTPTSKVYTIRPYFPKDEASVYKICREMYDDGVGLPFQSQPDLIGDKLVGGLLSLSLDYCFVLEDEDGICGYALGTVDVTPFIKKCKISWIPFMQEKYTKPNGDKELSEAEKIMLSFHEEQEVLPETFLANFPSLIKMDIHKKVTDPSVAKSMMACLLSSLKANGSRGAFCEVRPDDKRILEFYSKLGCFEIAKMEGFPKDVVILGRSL
Sequence of OGA (S400 O-GLCNAC), HEK-293T cells transfected with Tau-V5 (O60502 whole entry): as above

Row | Compound | pIC50 [1] | pIC50 [2, 4] | pIC50 [2, 5] | efflux ratio at 2 h (P-gp (MDR1); [6]) | efflux ratio at 2 h (P-gp (MDR1); MDCK-MDR1, pH 7.4, repeated assay, value marked with asterisk (*)) | RLM % Qh (%) [3, 7] [%] | RLM % Qh (%) [3, 5]
1 | COc1cncc(O[C@@H]2C[C@H](C)N(Cc3cnc(NC(C)=O)s3)C2)n1 [Example 1-12, N-(5-(((2S,4R)-4-((6-methoxypyrazin-2-yl)oxy)-2-methylpyrrolidin-1-yl)methyl)thiazol-2-yl)acetamide] | > 9.00 | 8.52 | 8.70 | 10 | 8.9 | 97 | 98* %
2 | CC(=O)Nc1ncc(CN2CC[C@@H](Oc3cc(C)nc(C)c3)C2)s1 [Example 1-59, (R)—N-(5-((3-((2,6-dimethylpyridin-4-yl)oxy)pyrrolidin-1-yl)methyl)thiazol-2-yl)acetamide] | 8.72 | 8.10 |  | 22.2 |  | 55 | 
3 | CC(=O)Nc1nc(F)c(CN2C[C@H](Oc3cncnc3)C[C@@H]2C)s1 [Example 1-119, N-(4-fluoro-5-(((2S,4R)-2-methyl-4-(pyrimidin-5-yloxy)pyrrolidin-1-yl)methyl)thiazol-2-yl)acetamide] | 8.89 | 7.72 |  | 6.3 |  | 50 | 
4 | COc1cc(O[C@H]2CCCN(Cc3sc(NC(C)=O)nc3F)C2)ncn1 [Example 1-32, (S)—N-(4-fluoro-5-((3-((6-methoxypyrimidin-4-yl)oxy)piperidin-1-yl)methyl)thiazol-2-yl)acetamide] | 7.85 | 7.49 |  | 3.1 |  | 83 | 
5 | CC(=O)Nc1ncc(CN2C[C@H](Oc3cc(F)ncn3)C[C@@H]2C)s1 [Example 1-78, N-(5-(((2S,4R)-4-((6-fluoropyrimidin-4-yl)oxy)-2-methylpyrrolidin-1-yl)methyl)thiazol-2-yl)acetamide] | 8.62 | 8.22 |  | 4.1 |  | 47 | 
6 | CC(=O)Nc1ncc(CN2C[C@H](Oc3cc(C(C)=O)ncn3)C[C@@H]2C)s1 [Example 1-76] | 8.59 | 7.60 |  | 6 |  | 65 | 
7 | [2H]C([2H])([2H])C(=O)Nc1ncc(CN2C[C@H](Oc3cc(OC)ncn3)C[C@@H]2C)s1 (single isomer, unassigned) [Example 1-156] | > 9.00 | 8.70 |  | 5.2 |  | 35 | 
8 | CC(=O)Nc1ncc(CN2C[C@H](Oc3cnc(C)cn3)C[C@@H]2C)s1 [Example 1-69, N-(5-(((2S,4R)-2-methyl-4-((5-methylpyrazin-2-yl)oxy)pyrrolidin-1-yl)methyl)thiazol-2-yl)acetamide] | > 9.00 | 8.52 |  | 6.1 |  | 59 | 
9 | CC(=O)Nc1ncc(CN2C[C@H](Oc3cc(C)nc(C)n3)C[C@@H]2C)s1 [Example 1-128, N-(5-(((2S,4R)-4-((2,6-dimethylpyrimidin-4-yl)oxy)-2-methylpyrrolidin-1-yl)methyl)thiazol-2-yl)acetamide] | > 9.00 | 9.00 |  | 26.3 |  | 48 | 
10 | CC(=O)Nc1nc(F)c(CN2C[C@H](Oc3cc(OC4COC4)ncn3)C[C@@H]2C)s1 [Example 1-140, N-(4-fluoro-5-(((2S,4R)-2-methyl-4-((6-(oxetan-3-yloxy)pyrimidin-4-yl)oxy)pyrrolidin-1-yl)methyl)thiazol-2-yl)acetamide] | > 9.00 | 8.40 |  | 8.4 |  | 43 | 
11 | [2H]C([2H])(c1cnc(NC(C)=O)s1)N1C[C@H](Oc2cc(OC)ncn2)C[C@@H]1C (single isomer, unassigned) [Example 1-160] | > 9.00 | 8.52 |  | 4.6 |  | 29 | 
12 | CC(=O)Nc1nc(F)c(CN2C[C@H](Oc3cc(N4CCOCC4)ccn3)C[C@@H]2C)s1 [Example 1-143, N-(4-fluoro-5-(((2S,4R)-2-methyl-4-((4-morpholinopyridin-2-yl)oxy)pyrrolidin-1-yl)methyl)thiazol-2-yl)acetamide] | > 9.00 | 8.40 |  | 25.6 |  | 75 | 
13 | CC(=O)Nc1ncc(CN2C[C@H](Oc3cc(N(C)C)ncn3)C[C@@H]2C)s1 [Example 1-131, N-(5-(((2S,4R)-4-((6-(dimethylamino)pyrimidin-4-yl)oxy)-2-methylpyrrolidin-1-yl)methyl)thiazol-2-yl)acetamide] | > 9.00 | 9.00 |  | 17.8 |  | 58 | 
14 | CC(=O)Nc1ncc(CN2C[C@H](Oc3cc(C)c(F)cn3)C[C@@H]2C)s1 [Example 1-87, N-(5-(((2S,4R)-4-((5-fluoro-4-methylpyridin-2-yl)oxy)-2-methylpyrrolidin-1-yl)methyl)thiazol-2-yl)acetamide] | > 9.00 | > 9.00 |  | 1.8 |  | 81 | 
15 | COc1cncc(O[C@@H]2C[C@H](C)N(Cc3sc(NC(C)=O)nc3F)C2)n1 [Example 1-88, N-(4-fluoro-5-(((2S,4R)-4-((6-methoxypyrazin-2-yl)oxy)-2-methylpyrrolidin-1-yl)methyl)thiazol-2-yl)acetamide] | > 9.00 | 9.00 |  | 4.7 |  | 98 | 
16 | CC(=O)Nc1nc(F)c(CN2C[C@@H](Oc3cc(C)nc(C)c3)C[C@H]2C)s1 [Example 1-53, N-(5-(((2R,4S)-4-((2,6-dimethylpyridin-4-yl)oxy)-2-methylpyrrolidin-1-yl)methyl)-4-fluorothiazol-2-yl)acetamide] | 5.77 | < 6.00 |  | 21.8 |  | 26 | 
17 | CC(=O)Nc1ncc(CN2C[C@H](Oc3ccc(C(F)F)cn3)C[C@@H]2C)s1 [Example 1-13, N-(5-(((2S,4R)-4-((5-(difluoromethyl)pyridin-2-yl)oxy)-2-methylpyrrolidin-1-yl)methyl)thiazol-2-yl)acetamide] | 8.96 | 8.70 |  | 2.4 |  | 90 | 
18 | COc1ncnc(O[C@@H]2C[C@H](C)N(Cc3cnc(NC(C)=O)s3)C2)c1C [Example 1-71, N-(5-(((2S,4R)-4-((6-methoxy-5-methylpyrimidin-4-yl)oxy)-2-methylpyrrolidin-1-yl)methyl)thiazol-2-yl)acetamide] | 8.77 | 7.80 |  | 3.5 |  | 76 | 
19 | COc1cc(O[C@@H]2C[C@H](C)N(Cc3sc(NC(C)=O)nc3F)C2)ncc1F [Example 1-118, N-(4-fluoro-5-(((2S,4R)-4-((5-fluoro-4-methoxypyridin-2-yl)oxy)-2-methylpyrrolidin-1-yl)methyl)thiazol-2-yl)acetamide] | > 9.00 | 9.00 |  | 3.5 |  | 85 | 
20 | CC(=O)Nc1ncc(CN2C[C@@H](Oc3cc(C)nc(C)c3)C[C@@H]2C)s1 [Example 1-62, N-(5-(((2S,4S)-4-((2,6-dimethylpyridin-4-yl)oxy)-2-methylpyrrolidin-1-yl)methyl)thiazol-2-yl)acetamide] | 7.59 | 7.05 |  | 65 |  | 32 | 
21 | CC(=O)Nc1nc(F)c(CN2C[C@H](Oc3cc(F)ccn3)C[C@@H]2C)s1 [Example 1-96, N-(4-fluoro-5-(((2S,4R)-4-((4-fluoropyridin-2-yl)oxy)-2-methylpyrrolidin-1-yl)methyl)thiazol-2-yl)acetamide] | > 9.00 | 9.00 |  | 1.2 |  | 86 | 
22 | CC(=O)Nc1nc(F)c(CN2CC[C@H](Oc3cc(C)nc(C)c3)C2)s1 [Example 1-48, (S)—N-(5-((3-((2,6-dimethylpyridin-4-yl)oxy)pyrrolidin-1-yl)methyl)-4-fluorothiazol-2-yl)acetamide] | 6.82 | 6.09 |  | 24.1 |  | 57 | 
